According to PMC8424629, “Chemical “Butterfly Effect” Explaining the Coordination Chemistry and Antimicrobial Properties of Clavanin Complexes” (Inorganic Chemistry, 2021):
≈ marks a conversion by molar mass, not a printed value. Like-named read-outs stand apart in the source and are kept apart here.

What was measured:
[1] = format: physicochemical
Method: (§1) All peptides ([…]-COOH, […]-COOH, […]
(§2) were purchased from KareBay Biochem (USA) (certified purity: 98 %) and were used as received.
(§3) The carbonate-free stock solutions of 0.1 M NaOH were purchased from Sigma-Aldrich and then potentiometrically standardized with the primary standard potassium hydrogen phthalate (99.9 % purity). […]
(§4) Stability constants for proton, Zn(II) and Cu(II) complexes were calculated from pH -metric titration curves carried out over the pH range 2-11 at T = 298 K in water solution of 4 mM HClO 4 and ionic strength 40 mM (SDS), using a total volume of 3 ml. The potentiometric titrations were performed using a Metrohm Titrando 905 titrator and a Mettler Toledo InLab Micro comb ined pH electrode. The thermostabilized glass -cell was equipped with a magnetic stirring system, a microburette delivery tube and an inlet –outlet tube for argon.
(§5) Solutions were titrated with 0.1 M carbonate-free NaOH. The electrodes were calibrated daily f or hydrogen ion concentration by titrating HClO 4 with NaOH under the same experimental conditions as above. The purities and the exact concentrations of the ligand solutions were determined by the Gran method. 1 The ligand concentration was 0.5 mM. The Zn(II) and Cu(II) to ligand ratio was 1 : 1.
(§6) The standard potential and the slope of the electrode couple were computed by means of Glee 2 program. The HYPERQUAD 20063 program was used for the stability constant calculations. The standard deviations were computed by HYPERQUAD 2006 and refer to random errors only. The constants for the hydrolytic Zn(II ) species

[2] = tested on: MRSA Staphylococcus aureus ATCC 43300; details: ATCC 43300, 24 h
[3] = tested on: Enterococcus faecalis ATCC 29212; details: ATCC 29212, 24 h
[4] = format: binding
Method: as §1, §2, §3, §4, §5, §6

[5] = tested on: Candida albicans ATCC 10231; details: ATCC 10231, 24 h
[6] = tested on: Escherichia coli ATCC 25922; assay: microbe, parasite or virus in culture; details: ATCC25922, 24 h
[7] = tested on: MRSA Staphylococcus aureus ATCC 43300; assay: microbe, parasite or virus in culture; details: 24 h
[8] = tested on: Pseudomonas aeruginosa ATCC 27853; assay: MIC, broth microdilution, reference strain; format: cell-based; details: ATCC27853, microdilution 0.5-256 µg/mL, TSB, 24 h, 37 °C, OD 580 nm
[9] = tested on: Enterococcus faecalis ATCC 29212; assay: microbe, parasite or virus in culture; details: ATCC29212, 24 h
[10] = tested on: E. coli; details: literature describes C-amidated clavanins, cited from earlier work
Text: During the over 20-year study on clavanins (mainly clavanin A), various modes of action were proposed.[15],[18],[19] […] The second is observed at acidic pH (5.5) when clavanin A binds to DNA and disrupts DNA synthesis, similarly to indolicidin.[20] The third mechanism, which also occurs at pH 5.5, is assigned not to the “single” clavanin A but to its Zn(II) complex, which cleav ...

[11] = potentiometry pH 2-11, 298 K, 4 mM HClO4, I = 40 mM SDS, ligand 0.5 mM, SD in parentheses
[12] = potentiometry, 298 K, I = 40 mM SDS, Cu(II):L 1:1, 0.5 mM, SD in parentheses
[13] = potentiometry, 298 K, I = 40 mM SDS, Zn(II):L 1:1, 0.5 mM, SD in parentheses

CC[C@H](C)[C@H](NC(=O)[C@H](CCCCN)NC(=O)CNC(=O)[C@H](CC(C)C)NC(=O)[C@H](CC(C)C)NC(=O)[C@H](Cc1c[nH]cn1)NC(=O)[C@H](Cc1ccccc1)NC(=O)[C@@H](N)C(C)C)C(=O)N[C@H](C(=O)N[C@@H](Cc1c[nH]cn1)C(=O)N[C@@H](Cc1c[nH]cn1)C(=O)N[C@H](C(=O)NCC(=O)N[C@@H](CC(N)=O)C(=O)N[C@@H](Cc1ccccc1)C(=O)N[C@H](C(=O)N[C@@H](Cc1ccc(O)cc1)C(=O)NCC(=O)N[C@@H](Cc1ccccc1)C(=O)N[C@@H](CO)C(=O)N[C@@H](Cc1c[nH]cn1)C(=O)N[C@H](C(=O)N[C@@H](Cc1ccccc1)C(=O)O)C(C)C)C(C)C)C(C)C)[C@@H](C)CC [Clavanin C]
pKa, species H2L [1]: 8.87
pKa, species H3L [1]: 8.08
pKa, species H4L [1]: 7.57
pKa, species H5L [1]: 7.10
pKa, species H6L [1]: 5.25
pKa, species HL [1]: 10.72
MIC [2]: 128 µg/mL (≈ 48 µM)
MIC [3]: 128 µg/mL (≈ 48 µM)
pKa, line CuH4L [4]: 4.99
pKa, line CuH-1L [4]: 8.09
pKa, line CuH-2L [4]: 10.66
pKa, line CuHL [4]: 6.10
pKa, line CuL [4]: 6.98
MIC [5]: 64 µg/mL (≈ 24 µM)

CNC(C)C1CCC(N)C(OC2C(N)CC(N)C(OC3OCC(C)(O)C(NC)C3O)C2O)O1 (stereo not shown) [gentamicin]
MIC [6]: 2 µg/mL (≈ 4.19 µM)

C[C@H]1COc2c(N3CCN(C)CC3)c(F)cc3c(=O)c(C(=O)O)cn1c23 [levofloxacin]
MIC [7]: 1 µg/mL (≈ 2.77 µM)
MIC [8]: 1 µg/mL (≈ 2.77 µM)
MIC [9]: 4 µg/mL (≈ 11.1 µM)

H-VFQFLGKIIHHVGNFVHGFSHVF-OH [Clavanin A]
minimum inhibitory concentration (MIC) ([10]; pH 5.5, with addition of Zn(II) ions): 4 µM
minimum inhibitory concentration (MIC) ([10]; pH 5.5, without Zn(II)): 64 µM
pKa, species H2L [1]: 8.88
pKa, species H3L [1]: 8.09
pKa, species H4L [1]: 7.63
pKa, species H5L [1]: 6.92
pKa, species H6L [1]: 5.32
pKa, species HL [1]: 10.18
log β H2L [1, 11]: 19.06 (6)
log β H3L [1, 11]: 27.15 (8)
log β H4L [1, 11]: 34.78 (7)
log β H5L [1, 11]: 41.7 (8)
log β H6L [1, 11]: 47.02 (10)
log β HL [1, 11]: 10.18 (6)
MIC [3]: 256 µg/mL
pKa, line CuH2L [4]: 6.82
pKa, line CuH3L [4]: 6.01
pKa, line CuH-1L [4]: 8.82
pKa, line CuH-2L [4]: 9.76
pKa, line CuH-3L [4]: 10.16
pKa, line CuHL [4]: 7.56
pKa, line CuL [4]: 8.36
pKa, line ZnH2L [4]: 7.15
pKa, line ZnH3L [4]: 6.59
pKa, line ZnHL [4]: 8.53
pKa, line ZnL [4]: 9.36
log β CuH2L [4, 12]: 27.53 (3)
log β CuH3L [4, 12]: 34.35 (2)
log β CuH4L [4, 12]: 40.36 (2)
log β CuH-1L [4, 12]: 2.79 (3)
log β CuH-2L [4, 12]: -6.97 (3)
log β CuH-3L [4, 12]: -17.13 (3)
log β CuHL [4, 12]: 19.97 (3)
log β CuL [4, 12]: 11.61 (3)
log β ZnH2L [4, 13]: 23.99 (2)
log β ZnH3L [4, 13]: 31.14 (3)
log β ZnH4L [4, 13]: 37.74 (12)
log β ZnHL [4, 13]: 15.46 (2)
log β ZnL [4, 13]: 6.10 (7)
MIC [5]: 128 µg/mL
